Data set [1] addresses T1, Nuclear factor erythroid 2-related factor 2 (Mus musculus) (UniProt Q60795).
T1 sequence (whole entry): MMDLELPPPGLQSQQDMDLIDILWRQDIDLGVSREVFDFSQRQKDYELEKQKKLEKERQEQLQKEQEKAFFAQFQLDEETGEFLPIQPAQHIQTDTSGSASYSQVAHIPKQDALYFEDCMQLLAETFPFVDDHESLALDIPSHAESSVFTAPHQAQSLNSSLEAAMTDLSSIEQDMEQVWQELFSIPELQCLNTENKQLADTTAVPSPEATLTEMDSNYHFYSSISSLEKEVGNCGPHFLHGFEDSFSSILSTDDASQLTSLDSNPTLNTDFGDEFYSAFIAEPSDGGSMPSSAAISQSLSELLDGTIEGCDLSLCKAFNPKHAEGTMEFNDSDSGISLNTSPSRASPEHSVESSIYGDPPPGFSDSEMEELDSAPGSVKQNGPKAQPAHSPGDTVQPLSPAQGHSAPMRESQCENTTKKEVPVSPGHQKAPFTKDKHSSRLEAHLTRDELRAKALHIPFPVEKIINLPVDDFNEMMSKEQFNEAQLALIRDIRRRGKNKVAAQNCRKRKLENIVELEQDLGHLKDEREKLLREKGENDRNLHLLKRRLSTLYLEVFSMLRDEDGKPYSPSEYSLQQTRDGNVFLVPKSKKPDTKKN
In words: Activation of Nrf2 in mouse Hepa1c1c7 cells assessed as increase in quinone reductase activity at 3.12 uM incubated for 24 hrs by MTT based assay. In kind it is cell-based. For orientation: Tetrazolium dyes change colour on reduction, which living cells bring about.

Data set [2] addresses T2, Nuclear factor erythroid 2-related factor 2 (Homo sapiens) (UniProt Q16236).
T2 sequence (whole entry): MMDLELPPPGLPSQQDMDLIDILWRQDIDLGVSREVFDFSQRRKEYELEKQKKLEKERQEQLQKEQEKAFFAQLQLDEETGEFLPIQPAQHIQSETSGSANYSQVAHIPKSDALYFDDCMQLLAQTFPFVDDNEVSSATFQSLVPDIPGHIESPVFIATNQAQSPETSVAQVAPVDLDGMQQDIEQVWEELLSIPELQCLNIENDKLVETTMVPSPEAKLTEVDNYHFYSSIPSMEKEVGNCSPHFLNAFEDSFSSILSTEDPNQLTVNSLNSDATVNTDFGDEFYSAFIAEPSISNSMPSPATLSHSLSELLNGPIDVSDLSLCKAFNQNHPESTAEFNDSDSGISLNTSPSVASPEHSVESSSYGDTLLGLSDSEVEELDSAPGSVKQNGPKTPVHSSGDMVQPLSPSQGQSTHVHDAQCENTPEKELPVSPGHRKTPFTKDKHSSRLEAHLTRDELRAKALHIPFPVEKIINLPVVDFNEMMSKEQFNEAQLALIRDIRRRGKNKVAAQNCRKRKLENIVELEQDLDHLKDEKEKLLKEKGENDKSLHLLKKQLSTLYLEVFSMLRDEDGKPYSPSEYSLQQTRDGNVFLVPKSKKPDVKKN
In words: Activation of Nrf2 in human MDA-MB-231 cells assessed as increase in luciferase activity incubated for 16 hrs by dual luciferase reporter gene assay. In kind it is cell-based.

Data set [3] deals with T2, Nuclear factor erythroid 2-related factor 2 (Homo sapiens). Nature of the data set: Activation of Nrf2 in human MDA-MB-231 cells assessed as increase in Nrf2 protein level at 0.5 uM incubated for 16 hrs by immunoblot analysis. It counts as cell-based. (Immunoblotting shows a protein as a band on a membrane.)
Data set [4] has the same target. Nature of the data set: Activation of Nrf2 in human MDA-MB-231 cells assessed as increase in NQO1 protein level at 0.5 uM incubated for 16 hrs by immunoblot analysis. In kind it is cell-based.
For data set [5], the system named is BEAS-2B. Nature of the data set: Cytotoxicity against human BEAS2B cells assessed as decrease in cell viability at < 12.5 uM after 24 hrs by MTT assay. It counts as cell-based.
Data set [6] has as its target T2, Nuclear factor erythroid 2-related factor 2 (Homo sapiens). Nature of the data set: Activation of Nrf2 in human BEAS2B cells at 0.25 to 2 uM incubated for 12 hrs by immunoblot analysis relative to SF. In kind it is cell-based.
For data set [7] the target is unchanged. Nature of the data set: Activation of Nrf2 in human BEAS2B cells assessed as increase in Nrf2 protein expression at 1 uM incubated for 8 hrs by immunoblot analysis. It counts as cell-based.
Data set [8] has the same target. Nature of the data set: Stabilization of Nrf2 in human BEAS2B cells harboring (HA)-ubiquitin assessed as suppression of Nrf2 ubiquitination at 1 uM after 8 hrs in presence of MG132 by immunoblot analysis. It counts as cell-based.
Data set [9] has the same target. In words: Activation of Nrf2 in human BEAS2B cells harboring Keap1-C151S mutant assessed as increase in Nrf2 protein expression at 2.5 uM after12 hrs in presence of Keap1-siRNA by immunoblot analysis. It counts as cell-based.
The test system of data set [10] is BEAS-2B. In words: Antioxidant activity in human BEAS2B cells assessed as increase in GSH level at 2 uM incubated for 1 to 12 hrs. It counts as functional, cell-based.
Data set [11] has as its system RAW264.7. In words: Cytotoxicity against mouse RAW264.7 cells assessed as reduction in cell viability < 6.25 uM after 24 hrs by MTT assay. It counts as cell-based. As to conditions: raw264.7, 24 h.
The subject of data set [12] is RAW264.7. In words: Inhibition of LPS-induced NFkappaB activation in mouse RAW264.7 cells pre-incubated for 1 hr followed by LPS-stimulation and measured after 16 hrs by dual luciferase reporter gene assay. In kind it is cell-based.
Data set [13] deals with RAW264.7. Nature of the data set: Inhibition of LPS-induced NFkappaB activation in mouse RAW264.7 cells assessed as decrease in phosphorylated NFkappaB p65 at 0.5 to 4 uM pre-incubated for 1 hr followed by LPS-stimulation and measured after 2 hrs by immunoblot analysis. In kind it is cell-based.
For data set [14], the system named is RAW264.7. In words: Inhibition of LPS-induced COX2 mRNA expression in mouse RAW264.7 cells at 0.5 to 4 uM preincubated for 1 hr followed by LPS-stimulation and measured after 6 hrs by qRT-PCR analysis. It counts as functional, cell-based. On the technique in general: Quantitative PCR measures a nucleic acid by following its amplification.
For data set [15], the system named is RAW264.7. Nature of the data set: Inhibition of LPS-induced TNFalpha mRNA expression in mouse RAW264.7 cells at 0.5 to 4 uM preincubated for 1 hr followed by LPS-stimulation and measured after 6 hrs by qRT-PCR analysis. In kind it is functional, cell-based.
Data set [16] deals with RAW264.7. In words: Inhibition of LPS-induced MMP-9 mRNA expression in mouse RAW264.7 cells at 0.5 to 4 uM preincubated for 1 hr followed by LPS-stimulation and measured after 6 hrs by qRT-PCR analysis. In kind it is functional, cell-based.
Data set [17] deals with Mus musculus. Nature of the data set: Antiinflammatory activity in C57BL/6 mouse model of CS-induced pulmonary injury assessed as reduction in goblet cell hyperplasia in peribronchial in lungs at 2 to 4 mg/kg, ip for 5 days by hematoxylin and eosin staining based fluorescence microscopic analysis. It counts as functional, organism-based.
The test system of data set [18] is Mus musculus. Nature of the data set: Antioxidant Activity in C57BL/6 mouse model of CS-induced pulmonary injury assessed as decrease in MDA level in serum at 2 to 4 mg/kg, ip for 5 days. It counts as functional, organism-based.
The test system of data set [19] is Mus musculus. Nature of the data set: Antiinflammatory activity in C57BL/6 mouse model of CS-induced pulmonary injury assessed as reduction in 8-oxo-dG in lungs at 2 to 4 mg/kg, ip for 5 days by ELISA. It counts as functional, organism-based.
Data set [20] concerns Mus musculus. Nature of the data set: Antiinflammatory activity in C57BL/6 mouse model of CS-induced pulmonary injury assessed as increase in GCLM protein expression in lungs at 2 to 4 mg/kg, ip for 5 days by immunoblot analysis. It counts as functional, organism-based.
Data set [21] relates to Mus musculus. In words: Antiinflammatory activity in C57BL/6 mouse model of CS-induced pulmonary injury assessed as reduction in TNFapha protein expression in lungs at 2 to 4 mg/kg, ip for 5 days by ELISA. It counts as functional, organism-based.

Each structure is given as a SMILES string. Active and inactive are the calls of the source. The calls are words filed in the database; no cut-off is given here.

With `CC1=C(C)C(=O)O[C@H]([C@](C)(O)[C@]2(O)CC[C@@]3(O)[C@@H]4C[C@H]5O[C@]56[C@@H](O)C=CC(=O)[C@]6(C)[C@H]4CC[C@]23C)C1`, the fold change (FC) in [1] was found to be 2.58; in data set [6], 2. For the same compound, the Activity result in [2] is “Dose-dependent effect”; in the data set on BEAS-2B [5] it was “Non-Toxic”; in the data set with RAW264.7 [11], “Non-Toxic”. Besides, the result (in data set [3]; in [4]; in data set [7]; in [8]; with BEAS-2B [10]; in the data set on Mus musculus [17]) was Active. Also, the outcome in the data set with Mus musculus [18], in the data set with Mus musculus [19], with Mus musculus [20] and with Mus musculus [21] was Active. Besides, the outcome in data set [9] was inactive. Besides, the inhibition entry with RAW264.7 [12] was “Dose-dependent effect”. Moreover, the inhibition entry with RAW264.7 [13], in the data set on RAW264.7 [14], in the data set on RAW264.7 [15] and with RAW264.7 [16] was “Active” throughout.

The values are drawn from ChEMBL document CHEMBL4616634, “4β-Hydroxywithanolide E from Goldenberry (Whole Fruits of Physalis peruviana L.) as a Promising Agent against Chronic Obstructive Pulmonary Disease” (J Nat Prod, 2020).
